Laboratory results taken from US7759369B2, “Pyridine compounds for the treatment of prostaglandin mediated diseases” (Glaxo Group Limited, priority 2004, dated 2010).
Structures can show the parent of a compound that is named as a salt.

What was measured:
Type in all cases: cell-based
TP receptor = target: T1, TP receptor (Homo sapiens, UniProt P21731); assay: human TP calcium mobilisation assay (CHO-K1 cells, U46619, FLIPR); details: free bases or sodium salts; read-out: functional pKi, human TP calcium mobilisation assay (converted)
T1 construct: expressed in transfected cells; host or cells: CHO-K1
T1 sequence (P21731 1-343): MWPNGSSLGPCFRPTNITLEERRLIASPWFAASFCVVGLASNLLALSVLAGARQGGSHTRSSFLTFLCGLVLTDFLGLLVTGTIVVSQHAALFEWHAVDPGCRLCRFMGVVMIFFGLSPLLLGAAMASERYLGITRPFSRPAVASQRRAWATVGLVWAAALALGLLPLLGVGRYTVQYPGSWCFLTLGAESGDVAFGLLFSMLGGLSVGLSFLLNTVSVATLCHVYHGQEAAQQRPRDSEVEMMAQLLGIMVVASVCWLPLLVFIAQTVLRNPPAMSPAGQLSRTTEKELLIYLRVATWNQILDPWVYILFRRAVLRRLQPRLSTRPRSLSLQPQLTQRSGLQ
Experimental: To determine if a compound has agonist or antagonist activity at the TP receptor a functional calcium mobilisation assay may be performed. Briefly, the antagonist properties of compounds are assessed by their ability to inhibit the mobilisation of intracellular calcium ([Ca^2+]i) in response to activation of TP receptors by the stable TXA2 mimetic U46619 (9,11-dideoxy-11α,9α-epoxy-methanoprostaglandin F2 α; commercially available from e.g Sigma-Aldrich). Increasing concentrations of antagonist reduce the amount of calcium that a given concentration of U46619 can mobilise. The net effect is to displace the U46619 concentration-effect curve. The amount of calcium produced is assessed using a calcium-sensitive fluorescent dye such as Fluo-4, AM and a suitable instrument such as a Fluorimetric Imaging Plate Reader (FLIPR). Increasing amounts of [Ca^2+]i produced by receptor activation increase the amount of fluorescence produced by the dye and give rise to an increasing signal. The signal may be detected using the FLIPR instrument and the data generated may be analysed with suitable curve-fitting software. The agonist activity of the compounds are determined by their ability to cause an increase in intracellular mobilisation in the absence of U46619.
(§1) The human TP calcium mobilisation assay utilises Chinese hamster ovary-K1 (CHO-K1) cells into which a stable (pCIN; BioTechniques 20 (1996): 102-110) vector containing TP cDNA has previously been transfected. Cells are cultured in suitable flasks containing culture medium such as DMEM:F-12 supplemented with 10% v/v foetal calf serum, 2 mM L-glutamine, 0.25 mg/ml geneticin, 100 μM flurbiprofen and 10 μg/ml puromycin.
(§2) For assay, cells are harvested using a proprietary reagent that dislodges cells such as Versene. Cells are re-suspended in a suitable quantity of fresh culture media for introduction into a 96-well plate. Following incubation for 24 hours at 37° C. the culture media is replaced with a medium containing Fluo-4 and the detergent pluronic acid, and a further incubation takes place. Concentrations of compounds are then added to the plate in order to construct concentration-effect curves. This may be performed on the FLIPR in order to assess the agonist properties of the compounds. Concentrations of U46619 are then added to the plate in order to assess the antagonist properties of the compounds.
The data so generated may be analysed by means of a computerised curve-fitting routine. The concentration of compound that elicits a half-maximal inhibition of the calcium mobilisation induced by U46619 (plC50) may then be estimated, and the percentage activation caused by the compounds directly can be used to determine if there is any agonism present.

EP3 receptors = target: T2, EP3 receptors (Homo sapiens, UniProt P43115); assay: human EP3 calcium mobilisation assay (CHO-K1 cells, PGE2, FLIPR); details: free bases or sodium salts; averages of a number of experiments; read-out: functional pKi value, human EP3 calcium mobilisation assay (converted)
T2 construct: expressed in transfected cells; host or cells: CHO-K1
T2 sequence (P43115 1-390): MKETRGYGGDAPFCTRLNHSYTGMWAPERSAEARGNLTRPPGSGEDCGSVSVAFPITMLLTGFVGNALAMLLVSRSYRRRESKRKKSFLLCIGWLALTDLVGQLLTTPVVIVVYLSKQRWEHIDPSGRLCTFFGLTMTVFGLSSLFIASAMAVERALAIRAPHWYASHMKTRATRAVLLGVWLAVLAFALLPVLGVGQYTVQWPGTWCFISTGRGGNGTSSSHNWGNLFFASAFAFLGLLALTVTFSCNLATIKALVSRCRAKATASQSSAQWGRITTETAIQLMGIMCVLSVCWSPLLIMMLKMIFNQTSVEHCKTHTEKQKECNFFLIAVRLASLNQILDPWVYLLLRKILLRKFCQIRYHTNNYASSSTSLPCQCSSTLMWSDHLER
Experimental: (§3) Briefly, the antagonist properties of compounds are assessed by their ability to inhibit the mobilisation of intracellular calcium ([Ca^2+]i) in response to activation of EP1 or EP3 receptors by the natural agonist hormone prostaglandin E2 (PGE2). Increasing concentrations of antagonist reduce the amount of calcium that a given concentration of PGE2 can mobilise. The net effect is to displace the PGE2 concentration-effect curve to higher concentrations of PGE2. The amount of calcium produced is assessed using a calcium-sensitive fluorescent dye such as Fluo-4, AM and a suitable instrument such as a Fluorimetric Imaging Plate Reader (FLIPR). Increasing amounts of [Ca^2+]i produced by receptor activation increase the amount of fluorescence produced by the dye and give rise to an increasing signal. The signal may be detected using the FLIPR instrument and the data generated may be analysed with suitable curve-fitting software.
as §1, with “human EP1 or EP3” for “human TP”, “assay (hereafter referred to as ‘the calcium assay’)” for “assay”, “containing either EP1 or EP3” for “containing TP”, “10 µg/ml” for “10 μg/ml”
as §2, with “384-well” for “96-well”, “PGE2” for “U46619”
(§4) The data so generated may be analysed by means of a computerised curve-fitting routine. The concentration of compound that elicits a half-maximal inhibition of the calcium mobilisation induced by PGE2 (pIC50) may then be estimated.

EP1 receptors = target: T3, EP1 receptors (Homo sapiens, UniProt P34995); assay: human EP1 calcium mobilisation assay (CHO-K1 cells, PGE2, FLIPR); design: expressed in transfected cells; host or cells: CHO-K1; details: free bases or sodium salts; averages of a number of experiments; read-out: functional pKi value, human EP1 calcium mobilisation assay (converted)
T3 sequence (P34995 1-402): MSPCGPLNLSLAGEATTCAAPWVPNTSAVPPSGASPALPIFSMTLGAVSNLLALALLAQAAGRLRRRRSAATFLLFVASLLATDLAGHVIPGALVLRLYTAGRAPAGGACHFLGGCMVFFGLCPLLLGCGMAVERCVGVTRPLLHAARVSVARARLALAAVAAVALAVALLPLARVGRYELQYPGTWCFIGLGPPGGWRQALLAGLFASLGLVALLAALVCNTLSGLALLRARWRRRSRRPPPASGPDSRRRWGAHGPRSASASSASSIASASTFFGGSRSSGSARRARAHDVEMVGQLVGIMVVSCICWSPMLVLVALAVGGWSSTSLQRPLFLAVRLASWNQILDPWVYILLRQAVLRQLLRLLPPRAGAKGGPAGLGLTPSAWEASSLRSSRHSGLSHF
Experimental: as §3
as §1, with “human EP1 or EP3” for “human TP”, “assay (hereafter referred to as ‘the calcium assay’)” for “assay”, “containing either EP1 or EP3” for “containing TP”, “10 µg/ml” for “10 μg/ml”
as §2, with “384-well” for “96-well”, “PGE2” for “U46619”
as §4

Row | Ki (TP receptor) [nM] | Ki (EP3 receptors) [nM] | Ki (EP1 receptors) [nM] | SMILES
1 | > 1000 |  |  | O=C(O)c1cccc(Cc2cc(Cl)ccc2OCc2ccccc2)n1 [Example 1, 6-({5-Chloro-2-[(phenylmethyl)oxy]phenyl}methyl)-2-pyridinecarboxylic acid]
2 |  | > 10000 | ≤ 31.6 | C=C(C)COc1ccc(Cl)cc1Cc1cccc(C(=O)O)n1 [Example 2, 6-({5-Chloro-2-[(2-methyl-2-propen-1-yl)oxy]phenyl}methyl)-2-pyridinecarboxylic acid]
3 | < 1000 |  | < 1000 | O=C(O)c1cccc(Cc2cc(Cl)ccc2OCc2ccc(F)cc2)n1 [Example 5, sodium 6-[(5-chloro-2-{[(4-fluorophenyl)methyl]oxy}phenyl)methyl]-2-pyridinecarboxylate]
4 | < 1000 |  | < 1000 | O=C(O)c1cccc(Cc2cc(Cl)ccc2OCc2c(F)cc(F)cc2F)n1 [Example 6, Sodium 6-[(5-chloro-2-{[(2,4,6-trifluorophenyl)methyl]oxy}phenyl)methyl]-2-pyridinecarboxylate]
5 | < 1000 |  | < 1000 | O=C(O)c1cccc(Cc2cc(Cl)ccc2OCc2ccc(F)c(F)c2F)n1 [Example 7, Sodium 6-[(5-chloro-2-{[(2,3,4-trifluorophenyl)methyl]oxy}phenyl)methyl]-2-pyridinecarboxylate]
6 | < 1000 | > 10000 | < 1000 | O=C(O)c1cccc(Cc2cc(Cl)ccc2OCc2ccccc2F)n1 [Example 8, Sodium 6-[(5-chloro-2-{[(2-fluorophenyl)methyl]oxy}phenyl)methyl]-2-pyridinecarboxylate]
7 | < 1000 | > 10000 | < 1000 | O=C(O)c1cccc(Cc2cc(Cl)ccc2OCc2ccc(Cl)cc2)n1 [Example 9, Sodium 6-[(5-chloro-2-{[(4-chlororophenyl)methyl]oxy}phenyl)methyl]-2-pyridinecarboxylate]
8 | > 1000 |  | ≤ 31.6 | O=C(O)c1cccc(Cc2cc(Cl)ccc2OCc2ccccc2Cl)n1 [Example 13, Sodium 6-[(5-chloro-2-{[(2-chlorophenyl)methyl]oxy}phenyl)methyl]-2-pyridinecarboxylate]
9 |  | > 10000 | < 1000 | CC(C)Oc1ccc(Cl)cc1Cc1cccc(C(=O)O)n1 [Example 16, Sodium 6-({5-chloro-2-[(1-methylethyl)oxy]phenyl}methyl)-2-pyridinecarboxylate]
10 |  | > 10000 | < 1000 | O=C(O)c1cccc(Cc2cc(Cl)ccc2OCC2CC2)n1 [Example 17, Sodium 6-({5-chloro-2-[(cyclopropylmethyl)oxy]phenyl}methyl)-2-pyridinecarboxylate]
11 |  |  | ≤ 31.6 | O=C(O)c1cccc(Cc2cc(Cl)ccc2OCC2CCCCC2)n1 [Example 18, Sodium 6-({5-chloro-2-[(cyclohexylmethyl)oxy]phenyl}methyl)-2-pyridinecarboxylate]
12 |  | > 10000 | < 1000 | O=C(O)c1cccc(Cc2cc(Cl)ccc2OC2CCCC2)n1 [Example 19, Sodium 6-{[5-chloro-2-(cyclopentyloxy)phenyl]methyl}-2-pyridinecarboxylate]
13 |  |  | < 1000 | CCC(CC)COc1ccc(Cl)cc1Cc1cccc(C(=O)O)n1 [Example 20, Sodium 6-({5-chloro-2-[(2-ethylbutyl)oxy]phenyl}methyl)-2-pyridinecarboxylate]
14 |  | > 10000 | > 1000 | O=C(NS(=O)(=O)c1cc(Cl)cc(Cl)c1)c1cccc(Cc2cc(Cl)ccc2OCc2ccc(Cl)cc2F)n1 [Example 31]
15 |  | > 10000 | > 1000 | COc1ccc(S(=O)(=O)NC(=O)c2cccc(Cc3cc(Cl)ccc3OCc3ccc(Cl)cc3F)n2)cc1 [Example 32, 6-[(5-Chloro-2-{[(4-chloro-2-fluorophenyl)methyl]oxy}-phenyl)methyl]-N-{[4-methoxyphenyl]suiphonyl}-2-pyridine-carboxamide]
16 |  | > 10000 | < 1000 | CC(=O)Nc1ccc(S(=O)(=O)NC(=O)c2cccc(Cc3cc(Cl)ccc3OCc3ccc(Cl)cc3F)n2)cc1 [Example 35, N-{[4-(Acetylamino)phenyl]-sulphonyl}-6-[(5-chloro-2-{[(4-chloro-2-fluorophenyl)methyl]-oxy}phenyl)methyl]-2-pyridine-carboxamide]
17 |  |  | ≤ 31.6 | O=C(O)c1cc(Cl)cc(Cc2cc(Cl)ccc2OCc2ccc(Cl)cc2F)n1 [Example 37, 4-Chloro-6-[(5-chloro-2-{[(4-chloro-2-fluorophenyl)-methyl]oxy}phenyl)methyl]-2-pyridinecarboxylic acid, sodium salt]
18 |  | > 10000 | > 1000 | Cc1ccc(Cc2cc(Cl)ccc2OCc2ccc(Cl)cc2F)nc1C(=O)O [Example 40, 6-[(5-Chloro-2-{[(4-chloro-2-fluorophenyl)methyl]oxy}-phenyl)methyl]-3-methyl-2-pyridinecarboxylic acid, sodium salt]
